Experimental data as given in ChEMBL document CHEMBL4368865, “Synthesis, characterization and cytotoxic activity evaluation of ginsengdiol oxidation and nitrogen hybrid derivatives” (Medchemcomm, 2018).

Assays:
U-87 MG = assay: Cytotoxicity against human U87 cells assessed as inhibition of cell proliferation after 48 hrs by MTT assay; assay type: functional, cell-based, U-87MG ATCC
MCF7 = assay: cells; assay type: functional, cell-based; conditions: Homo sapiens, MCF7, 48 h
Description: Cytotoxicity against human MCF7 cells assessed as inhibition of cell proliferation after 48 hrs by MTT assay

[1] = Cytotoxicity against human 8901 cells assessed as inhibition of cell proliferation after 48 hrs by MTT assay; assay type: functional, cell-based
A549 [2] = assay: Cytotoxicity against human A549 cells assessed as inhibition of cell proliferation after 48 hrs by MTT assay; assay type: functional, cell-based; conditions: A549, 48 h
HeLa [3] = assay: Cytotoxicity against human HeLa cells assessed as inhibition of cell proliferation after 48 hrs by MTT assay; assay type: functional, cell-based
[4] = Cytotoxicity against human IOSE-144 cells assessed as inhibition of cell proliferation after 48 hrs by MTT assay; assay type: cell-based; conditions: IOSE-144, 48 h
A549 [5] = assay: Potency index, ratio of 5-fluorouracil IC50 to test compound IC50 for human A549 cells; assay type: functional
HeLa [6] = assay: Potency index, ratio of 5-fluorouracil IC50 to test compound IC50 for human HeLa cells; assay type: functional

Row | Structure (SMILES) | IC50 (U-87 MG) | IC50 (MCF7) | IC50 [1] | IC50 (A549 [2]) | IC50 (HeLa [3]) | IC50 [4] | Ratio IC50 (A549 [5]) | Ratio IC50 (HeLa [6])
1 | CC(C)(O)CCC[C@@](C)(O)[C@H]1CC[C@]2(C)[C@@H]1C(=O)C[C@@H]1[C@@]3(C)CC[C@H](O)C(C)(C)[C@@H]3CC[C@]12C | > 100 µM | > 100 µM | 66.5 µM | 50.6 µM | > 100 µM | > 100 µM |  | 
2 | CC1(C)CCC[C@](C)([C@H]2CC[C@]3(C)[C@@H]2[C@H](O)C[C@@H]2[C@@]4(C)CC/C(=N\O)C(C)(C)[C@@H]4CC[C@]23C)O1 | > 100 µM | > 100 µM | > 100 µM | > 100 µM | > 100 µM | > 100 µM |  | 
3 | CC1(C)CCC[C@](C)([C@H]2CC[C@]3(C)[C@@H]2[C@H](O)C[C@@H]2[C@@]4(C)C=C(O)C(=O)C(C)(C)[C@@H]4CC[C@]23C)O1 | 20.2 µM | 23.6 µM | 50.1 µM | 40 µM | 25 µM | > 100 µM |  | 
4 | CC1(C)CCC[C@](C)([C@H]2CC[C@]3(C)[C@@H]2[C@H](O)C[C@@H]2[C@@]4(C)Cc5nc6ccccc6nc5C(C)(C)[C@@H]4CC[C@]23C)O1 | > 100 µM | > 100 µM | > 100 µM | > 100 µM | > 100 µM | > 100 µM |  | 
5 | CC(C)(O)CCC[C@@](C)(O)[C@H]1CC[C@]2(C)[C@@H]1[C@H](O)C[C@@H]1[C@@]3(C)Cc4nccnc4C(C)(C)[C@@H]3CC[C@]12C | 38.1 µM | 17.7 µM | 13.2 µM | 8.93 µM | > 100 µM | > 100 µM | 2.6 | 
6 | COC(C)(C)CCC[C@@](C)(O)[C@H]1CC[C@]2(C)[C@@H]1[C@H](O)C[C@@H]1[C@@]3(C)C=C(O)C(=O)C(C)(C)[C@@H]3CC[C@]12C | 20.7 µM | 35.7 µM | 25.9 µM | 21.6 µM | 39 µM | > 100 µM |  | 
7 | CC(C)(O)CCC[C@@](C)(O)[C@H]1CC[C@]2(C)[C@@H]1[C@H](O)C[C@@H]1[C@@](C)(CC(=O)O)[C@H](C(C)(C)C(=O)O)CC[C@]12C | > 100 µM | > 100 µM | > 100 µM | > 100 µM | > 100 µM | > 100 µM |  | 
8 | COC(C)(C)CCC[C@@](C)(O)[C@H]1CC[C@]2(C)[C@@H]1[C@H](O)C[C@@H]1[C@@](C)(CC(=O)O)[C@H](C(C)(C)C=O)CC[C@]12C | > 100 µM | > 100 µM | > 100 µM | 85 µM | > 100 µM | > 100 µM |  | 
9 | CC1(C)CCC[C@](C)([C@H]2CC[C@]3(C)[C@@H]2[C@H](O)C[C@@H]2[C@@]4(C)Cc5nccnc5C(C)(C)[C@@H]4CC[C@]23C)O1 | > 100 µM | > 100 µM | > 100 µM | > 100 µM | > 100 µM | > 100 µM |  | 
10 | CC1(C)CCC[C@](C)([C@H]2CC[C@]3(C)[C@@H]2[C@H](O)C[C@@H]2[C@@]4(C)CC(C=O)C(=O)C(C)(C)[C@@H]4CC[C@]23C)O1 (some centres undefined) | 30.6 µM | 28.3 µM | 30.1 µM | 18.5 µM | 31.9 µM | > 100 µM |  | 
11 | CC(C)(O)CCC[C@@](C)(O)[C@H]1CC[C@]2(C)[C@@H]1C(=O)C[C@@H]1[C@@]3(C)CCC(=O)C(C)(C)[C@@H]3CC[C@]12C | > 100 µM | 65.1 µM | > 100 µM | 90 µM | > 100 µM | > 100 µM |  | 
12 | CC1(C)CCC[C@](C)([C@H]2CC[C@]3(C)[C@@H]2[C@H](O)C[C@@H]2[C@@](C)(CC(=O)O)[C@H](C(C)(C)C=O)CC[C@]23C)O1 | > 100 µM | > 100 µM | > 100 µM | > 100 µM | > 100 µM | > 100 µM |  | 
13 | Cc1ncc2c(n1)C(C)(C)[C@@H]1CC[C@]3(C)[C@H](C[C@@H](O)[C@@H]4[C@@H]([C@@]5(C)CCCC(C)(C)O5)CC[C@]43C)[C@@]1(C)C2 | 86.3 µM | 83 µM | > 100 µM | > 100 µM | > 100 µM | > 100 µM |  | 
14 | CC1(C)CCC[C@](C)([C@H]2CC[C@]3(C)[C@@H]2[C@H](O)C[C@@H]2[C@@]4(C)CCC(=O)C(C)(C)[C@@H]4CC[C@]23C)O1 | 90 µM | 78.1 µM | > 100 µM | > 100 µM | 66.4 µM | > 100 µM |  | 
15 | COC(C)(C)CCC[C@@](C)(O)[C@H]1CC[C@]2(C)[C@@H]1C(=O)C[C@@H]1[C@@]3(C)CC[C@H](O)C(C)(C)[C@@H]3CC[C@]12C | 32.7 µM | 44.9 µM | 81.3 µM | 37.1 µM | 18 µM | > 100 µM |  | 
16 | COC(C)(C)CCC[C@@](C)(O)[C@H]1CC[C@]2(C)[C@@H]1[C@H](O)C[C@@H]1[C@@]3(C)CCC(=O)C(C)(C)[C@@H]3CC[C@]12C | > 100 µM | 50.3 µM | 78.6 µM | 39.9 µM | > 100 µM | > 100 µM |  | 
17 | CC1(C)CCC[C@](C)([C@H]2CC[C@]3(C)[C@@H]2[C@H](O)C[C@@H]2[C@@]4(C)Cc5cn[nH]c5C(C)(C)[C@@H]4CC[C@]23C)O1 | 26.2 µM | 18.9 µM | 13.5 µM | 9.62 µM | 11.7 µM | > 100 µM |  | 2.5
18 | COC(C)(C)CCC[C@@](C)(O)[C@H]1CC[C@]2(C)[C@@H]1[C@H](O)C[C@@H]1[C@@]3(C)CC[C@H](O)C(C)(C)[C@@H]3CC[C@]12C | 19.5 µM | 44.6 µM | 38.5 µM | 29.3 µM | 29.4 µM | > 100 µM |  | 
19 | CC(C)(O)CCC[C@@](C)(O)[C@H]1CC[C@]2(C)[C@@H]1C(=O)C[C@@H]1[C@@]3(C)Cc4nccnc4C(C)(C)[C@@H]3CC[C@]12C | > 100 µM | 39.1 µM | > 100 µM | 19.7 µM | > 100 µM | > 100 µM |  | 
20 | CC1(C)CCC[C@@](C)(O)[C@H]2CC[C@]3(C)[C@@H]2[C@@H](C[C@@H]2[C@@]4(C)CCC(=O)C(C)(C)[C@@H]4CC[C@]23C)O1 | 76.4 µM | 91.9 µM | > 100 µM | 86.4 µM | > 100 µM | > 100 µM |  | 
21 | CC(C)(O)CCC[C@@](C)(O)[C@H]1CC[C@]2(C)[C@@H]1[C@H](O)C[C@@H]1[C@@]3(C)CCC(=O)C(C)(C)[C@@H]3CC[C@]12C | > 100 µM | 66.6 µM | > 100 µM | 25.7 µM | > 100 µM | > 100 µM |  | 
22 | COC(C)(C)CCC[C@@](C)(O)[C@H]1CC[C@]2(C)[C@@H]1C(=O)C[C@@H]1[C@@]3(C)CCC(=O)C(C)(C)[C@@H]3CC[C@]12C | > 100 µM | 98.5 µM | > 100 µM | > 100 µM | > 100 µM | > 100 µM |  | 
23 | CC1(C)CCC[C@](C)([C@H]2CC[C@]3(C)[C@@H]2[C@H](O)C[C@@H]2[C@@]4(C)Cc5cnc(N)nc5C(C)(C)[C@@H]4CC[C@]23C)O1 | 82.6 µM | 27.9 µM | 45.7 µM | 26.9 µM | 69.4 µM | > 100 µM |  | 
24 | CC(C)(O)CCC[C@@](C)(O)[C@H]1CC[C@]2(C)[C@@H]1[C@H](O)C[C@@H]1[C@@]3(C)C=C(O)C(=O)C(C)(C)[C@@H]3CC[C@]12C | 45.4 µM | 46.2 µM | 87.8 µM | 24.3 µM | 50.9 µM | > 100 µM |  | 
25 | CC1(C)CCC[C@](C)([C@H]2CC[C@]3(C)[C@@H]2[C@H](O)C[C@@H]2[C@@]4(C)Cc5cnoc5C(C)(C)[C@@H]4CC[C@]23C)O1 | > 100 µM | > 100 µM | > 100 µM | 67.3 µM | > 100 µM | > 100 µM |  | 
26 | O=c1[nH]cc(F)c(=O)[nH]1 [FLUOROURACIL] | 22 µM |  | 33.3 µM |  | 28.2 µM | 34.8 µM |  | 
27 | CC1(C)CCC[C@](C)([C@H]2CC[C@]3(C)[C@@H]2[C@H](O)C[C@@H]2[C@@]4(C)CC[C@H](O)C(C)(C)[C@@H]4CC[C@]23C)O1 [PANAXADIOL] | > 100 µM | 52.6 µM | > 100 µM | 44.6 µM | > 100 µM | > 100 µM |  | 
28 | CC1(C)CCC[C@](C)([C@H]2CC[C@]3(C)[C@@H]2[C@H](O)C[C@@H]2[C@@]4(C)Cc5c([nH]c6ccccc56)C(C)(C)[C@@H]4CC[C@]23C)O1 | > 100 µM | > 100 µM | > 100 µM | > 100 µM | > 100 µM | > 100 µM |  | 
29 | CC1(C)CCC[C@](C)([C@H]2CC[C@]3(C)[C@@H]2[C@H](O)C[C@@H]2[C@@]4(C)CC(C#N)=C(O)C(C)(C)[C@@H]4CC[C@]23C)O1 | 41.6 µM | 29.7 µM | 25.7 µM | 12.9 µM | 12.7 µM | > 100 µM |  | 
30 | CC(C)(O)CCC[C@@](C)(O)[C@H]1CC[C@]2(C)[C@@H]1[C@H](O)C[C@@H]1[C@@]3(C)CC[C@H](O)C(C)(C)[C@@H]3CC[C@]12C | 25.1 µM |  | 46.5 µM | 27.9 µM | 19.6 µM | > 100 µM |  | 
